Test results published in US20240197761A1, “FUCOSYLATION AND IMMUNE MODULATION IN CANCER” (H. LEE MOFFITT CANCER CENTER AND RESEARCH INSTITUTE, INC., priority 2021, published 2024).

Test system: NRAS G13D-mutant mouse melanoma (SW1) tumors
Experiment: SW1 mouse melanoma model ± oral L-fucose: tumor growth, tumor fucosylation, itIC and splenic flow cytometric profiling
Type: in vivo, C3H/HeN mice
Settings: oral L-fuc
Experimental: Tumors of SW1 or SM1 melanoma cells from […] or C57BL/6 mice, respectively) were digested using 1× tumor digest buffer (0.5 mg/mL Collagenase I, 0.5 mg/mL Collagenase IV, 0.25 mg/mL Hyalyronidase V, 0.1 mg/mL DNAse I in HBSS (Millipore Sigma (St. Louis, MO)). Tumors were homogenized using the Miltenyi MACs dissociator. Red blood cells were lysed using ACK lysis buffer (Life Technologies, (Grand Island, NY)). Tumor homogenate cells were counted using a standard hemocytometer.
Total TILs were gated first to single cells (based on forward scatter height vs width, followed by side scatter height vs. width). Live cells were gated from the Zombie negative population from the population above. TILs were gated based on splenocyte size from a control spleen. Individual immune subpopulations were sub-gated from the total TIL population using the following staining criteria: CD3+ for CD3+ T cells; CD3+/CD4+/CD8− for CD4+T cells; CD3+/CD4−/CD8+ for CD8+ T cells, CD11c+/CD11b+ for DCs; either NK1.1 (for C57/BL6 mice) or DX5 (for C3H/HeJ) for NK cells; CD11b+/GR1+ for MDSC-like cells; and F4/80+ for macrophages. Single-cell suspensions from tumor and spleen tissue were stained with Live/Dead Zombie NIR (Biolegend, (San Diego, CA)) at 1:1,000 in PBS for 20 min. Cell suspensions were spun down and stained with the following with antibodies at 0.5 μg/ml per antibody: APC anti-mouse CD3, Pacific Blue anti-mouse CD4, BV785 anti-mouse CD8, PerCP anti-mouse CD25, FITC anti-mouse F4/80, PeCy7 anti-mouse CD11c, PE anti-mouse NK1.1 or PE anti-mouse DX5, and PerCP-Cy5.5 anti-mouse CD11 b. After staining, the cells were washed and fixed (2% formaldehyde), followed by another wash and flow cytometric analysis. The compensation controls were prepared using 0.5 μg/mL of each antibody with UltraComp eBeads, (ThermoFisher Scientific (Waltham, MA)). All samples were subject to flow cytometric profiling using a LSR Flow Cytometer (BD Biosciences (San Jose, CA)) and analysis as indicated using FlowJo software (BD Biosciences (San Jose, CA)).
For assessment of mouse tumor fucosylation, FFPE tumor sections were immunostained with FITC-conjugated AAL lectin (0.4 μg/mL, Vector Laboratories (Burlingame, CA)) and rabbit anti-Mart1+rabbit anti-S100 (melanoma marker cocktail). The slides were mounted with Vectashield+DAPI (Vector Laboratories (Burlingame, CA)). Four representative microscopy images per tumor were acquired using a Keyence BZ-X710, and images were process and analyzed using FIJI (NIH) as follows: melanoma marker-positive regions were assigned as regions of interest (ROI) in which we measured Integrated density of AAL signal. Integrated densities of control tumors were assigned as 1, and Integrated AAL density values of experimental tumors were divided by control to produce relative fold changes and plotted as column charts. […]

SMILES: C[C@H](O)[C@@H](O)[C@@H](O)[C@H](O)C=O [L-fucose]
- CD4+ and CD8+ T cells of total itICs: doubled
- increase of total itICs: 10-50 fold
- increase of tumor fucosylation: ~2 fold
- reduction of tumor growth: ~50%
- splenic lymphocyte profiles: without altering
